Tests used:
[1] = ultraviolet-induced erythema test, compound administered 8 or 22 hours prior to exposure; type: in vivo, guinea pig; conditions: 0.5 mg./kg.; for Score 0.5 hours after exposure to ultraviolet: 0.5 h reading; for Score 1.0 hours after exposure to ultraviolet: 1.0 h reading; for Score 1.5 hours after exposure to ultraviolet: 1.5 h reading; for Score 2.0 hours after exposure to ultraviolet: 2.0 h reading; for Score 2.5 hours after exposure to ultraviolet: 2.5 h reading; for Score 3.0 hours after exposure to ultraviolet: 3.0 h reading
Procedure: (§1) The compounds of the present invention were evaluated for anti-inflammatoryactivity by the ultraviolet-induced erythema blocking test. The test procedures were a modification of the Winder method (Winder, C. V.; Wax, J.; Burr, V.; Been, M.; and Posiere, C. E.: A Study of Pharmacological Influences on Ultraviolet Erythema in Guinea Pigs. Arch. Int. Pharmacodyn. 116: 261, 1958). Male albino guinea pigs weighing 240-300 gm. were used. The hair on the back was clipped and chemically depilated 15-18 hours before each experiment. The animals were fasted overnight, and on the day of the experiment, were randomized and placed in clear plastic partitioned holders 10×20 cm. wide and 15 cm. high.
(§2) The compounds to be tested were suspended in 1% methyl cellulose in water, utilizing a tissue homogenizer. The suspensions were administered orally in a volume of 2.0 ml./kg. of body weight. Control animals received an equal amount of the vehicle.
(§3) The source of ultraviolet light was a Hanovia lamp (Kromayer-Model 10). A notebook reinforcement ring was placed upon the lens of the lamp to provide an area of contrast for grading purposes. The lens was then placed in contact with the skin of the guinea pig's back. Exposure time to UV was for a period of 4 seconds. Beginning one hour after exposure and thereafter at half-hour intervals for another 11/2 hours, the degree of resulting erythema was graded by an arbitrary scoring system based upon the degree of contrast and redness formed. Anti-inflammatory agents delay the development of the erythema and have their greatest effect at the initial grading periods. The scores were, therefore, weighted by factors of 4, 3, 2, and 1 at the 1.0, 1.5, 2.0, and 2.5 hour scoring times, respectively. The erythema was graded as follows:
Total scores from each treatment group of four guinea pigs were compared to the scores of the control group. The percent inhibition was calculated as follows: [formula] In the case of compounds showing inhibition, retesting was carried out at a plurality of doses to enable calculation of an ED50 for each such compound. "ED50 " designates that dose which provides 50% inhibition. Calculation of the ED50 was either by a standard linear regression method or by estimation from a dose-response curve of three or more points. The compounds so tested and their ED50 s were as follows:
(4-(2-Fluorophenyl)phenyl)acetylene was evaluated again by the procedures of Examples 29-52, except that the compound was administered 8 or 22 hours prior to exposure to ultraviolet light. The dose was uniformly 0.5 mg./kg. Readings were made at half-hour intervals beginning at one-half hour after exposure and ending at three and one-half hours after exposure. Scores were not weighted, and results were recorded only as percent inhibition.

[2] = carrageenin-induced hind paw inflammation; type: in vivo; conditions: Rattus norvegicus
Procedure: Representative compounds were also evaluated for anti-inflammatory activity in the test method described by C. A. Winter at 111 Proc. Soc. Exp. Biol. Med., 544 (1962). In this method, inflammation is created by injecting carrageenin into the hind paw of rats. Test compounds are administered prior to injection to determine percent inhibition of the subsequent inflammation, in comparison with control animals.

[3] = control of inflammation in dogs (ultraviolet-induced erythema, abdominal skin); type: in vivo, dog
Procedure: (4-(2-Fluorophenyl)phenyl)acetylene was also evaluated for the control of inflammation in dogs. The testing procedures were the same as reported in the preceding examples except for these differences: a 10-second exposure time was used; non-pigmented abdominal skin was used; and the observed erythema was graded every half hour over a three-hour period with no weighting of scores. A placebo control was run with the same test dogs on the day prior to treatment.

[4] = ultraviolet-induced erythema blocking test, oral (modified Winder method); type: in vivo, guinea pig (male albino); conditions: Cavia porcellus, guinea pig, weighted scores 1.0-2.5 h after UV, dose which provides 50% inhibition
Procedure: as §1, §2, §3
Total scores from each treatment group of four guinea pigs were compared to the scores of the control group. The percent inhibition was calculated as follows: [formula] In the case of compounds showing inhibition, retesting was carried out at a plurality of doses to enable calculation of an ED50 for each such compound. "ED50 " designates that dose which provides 50% inhibition. Calculation of the ED50 was either by a standard linear regression method or by estimation from a dose-response curve of three or more points. The compounds so tested and their ED50 s were as follows: […]

In the case of C#Cc1ccc(-c2ccccc2F)cc1 [(4-(2-fluorophenyl)phenyl)acetylene], the “% Erythema Inhibition” value ([1]; 8 hours prior to exposure) is reported as 71%, the “Score 0.5 hours after exposure to ultraviolet” value ([1]; 8 hours prior to exposure) is reported as 0 and the “Score 1.0 hours after exposure to ultraviolet” value ([1]; 8 hours prior to exposure) is reported as 0. The “Score 1.5 hours after exposure to ultraviolet” value ([1]; 8 hours prior to exposure) was 3, the “Score 2.0 hours after exposure to ultraviolet” value ([1]; 8 hours prior to exposure) was 6 and the “Score 2.5 hours after exposure to ultraviolet” value ([1]; 8 hours prior to exposure) was 6. For the same molecule, the “Score 3.0 hours after exposure to ultraviolet” value ([1]; 8 hours prior to exposure) was 15, the “Total Score” value ([1]; 8 hours prior to exposure, control 104) was 30 and the “% Erythema Inhibition” value ([1]; 22 hours prior to exposure) was 41%. For the same molecule, the “Score 0.5 hours after exposure to ultraviolet” value ([1]; 22 hours prior to exposure) was 3, the “Score 1.0 hours after exposure to ultraviolet” value ([1]; 22 hours prior to exposure) was 4 and the “Score 1.5 hours after exposure to ultraviolet” value ([1]; 22 hours prior to exposure) was 8. The “Score 2.0 hours after exposure to ultraviolet” value ([1]; 22 hours prior to exposure) was 14, the “Score 2.5 hours after exposure to ultraviolet” value ([1]; 22 hours prior to exposure) was 17 and the “Score 3.0 hours after exposure to ultraviolet” value ([1]; 22 hours prior to exposure) was 17. The “Total Score” value ([1]; 22 hours prior to exposure, control 107) was 63, the inhibition in vivo at 0.3 mg/kg ([2]; 0.3 mg./kg.) was 21% and the inhibition in vivo at 0.5 mg/kg ([2]; 0.5 mg./kg.) was 6%. The inhibition in vivo at 1.5 mg/kg ([2]; 1.5 mg./kg.) was 29%, the inhibition in vivo at 2.5 mg/kg ([2]; 2.5 mg./kg.) was 35% and the inhibition in vivo at 5 mg/kg ([2]; 5 mg./kg.) was 43%. For the same molecule, the inhibition in vivo at 15 mg/kg ([2]; 15 mg./kg.) was 56%, the inhibition in vivo at 25 mg/kg ([2]; 25 mg./kg.) was 65% and the inhibition in vivo at 50 mg/kg ([2]; 50 mg./kg.) was 57%. The “% Erythema Inhibition” value ([3]; dog No. 04, 5 mg/kg) was 100%, the “Total erythemic score” value ([3]; dog No. 04, 5 mg/kg, control 15) was 0 and the “% Erythema Inhibition” value ([3]; dog No. 05, 1 mg/kg) was 71%. The “Total erythemic score” value ([3]; dog No. 05, 1 mg/kg, control 14) was 4, the “% Erythema Inhibition” value ([3]; dog No. 05, 10 mg/kg) was 100% and the “Total erythemic score” value ([3]; dog No. 05, 10 mg/kg, control 14) was 0. For the same molecule, the ED50 [4] was 0.05 mg/kg.
